Here are results for two compounds from paper PMC10028264, “Synergistic antifungal interaction of N-(butylcarbamothioyl) benzamide and amphotericin B against Cryptococcus neoformans” (Frontiers in Microbiology, 2023).

The test system of data set [1] is Cryptococcus neoformans. Briefly: Time-kill kinetics. The data set is classed as cell-based. The conditions noted are these: for difference in CFU counts compared to untreated control cells: BTU-01 MIC, 48 h. On the procedure: For all assays, fungal cells were incubated in RPMI-MOPS (except when specified) supplemented with BTU-01 and AmB alone at MIC and MFC values or combined at the synergistic MIC values. Untreated fungal cells were considered as control. The time-kill assay ([CLSI, 1999]) was performed to analyze the rate of fungal killing in the presence of the compounds alone or combined. The fungal cells (1.0 × 10^3 CFU/mL) were added to the wells of U-bottom 96-wells microtiter plates containing RPMI-MOPS supplemented with BTU-01 and/or AmB and were incubated at 37°C. At determined time points (0, 24, and 48 h), 10 μL was removed from each well and 10-fold serial diluted in saline. A 10-μL aliquot of each dilution was inoculated onto SD agar and the CFU counts were carried out after incubation at 37°C for 48 h. Averaged data were plotted as log10 CFU/mL vs. time (h). The fungicidal effect of the compounds was defined as a 99.9% (3 log10) reduction in CFU/mL of the starting inoculum ([[…] et al., 1998]).

Data set [2] relates to Cryptococcus neoformans. Briefly: Fungal capsule and cell size (Chinese ink, light microscopy). It is filed as cell-based. As to conditions: compared to untreated cells; ATCC 34872 and 1172; 48 h; p < 0.05. As for the experimental part: For all assays, fungal cells were incubated in RPMI-MOPS (except when specified) supplemented with BTU-01 and AmB alone at MIC and MFC values or combined at the synergistic MIC values. Untreated fungal cells were considered as control.
Cryptococcus neoformans was cultivated in a minimal capsular induction medium (15 mM glucose, 10 mM MgSO4, 29.4 mM KH2PO4, 13 mM glycine and 3 μM thiamine-HCl, pH 5.5) at 37°C for 7 days ([Frases et al., 2009]). Afterward, a standard fungal suspension was prepared as described above, and the cells (1.0 × 10^7 CFU/mL) were treated with the compounds at 37°C for 48 h. Cells were collected by centrifugation (10,000 × g, 1 min), suspended in an equal volume of Chinese ink on glass slides, spread the smear evenly with coverslips, and observed with a Zeiss Axio Imager 2 microscope (Zeiss, Germany). The capsule size of 100 randomly chosen cells was measured by using the software ImageJ 1.49v.^1 The capsule thickness was determined according to [Spadari et al. (2019)], which consisted of the difference between the diameter of the cell, including the capsule, with the diameter of the body cell within the cell wall.

The test system of data set [3] is Cryptococcus neoformans biofilm. The data set can be described thus: Antifungal activity on sessile cells, 72-h biofilm, MTT reduction (SMIC80). The data set is classed as cell-based. On the procedure:
The capacity of C. neoformans strains to form biofilm was evaluated on flat-bottomed 96-well polystyrene plates (Techno Plastic Products, Switzerland), as described by [Martinez and Casadevall (2006)]. Thus, the biofilms were formed in SD broth statically at 37°C for 24, 48, 72, 96, and 120 h, with an inoculum of 1.0 × 10^7 CFU/mL. After each incubation period, the viability of sessile cells was evaluated using the 3-(4,5-dimethylthiazol-2-yl)-2,5-diphenyltetrazolium bromide (MTT, Merck, Brazil) reduction assay according to the manufacturer’s recommendations. The assays were carried out in quintuplicate and performed on two separate occasions.
To evaluate the antifungal activity of the compounds on sessile cells, biofilms were formed for 72 h, washed with saline, and 200-μL aliquots of RPMI-MOPS containing different concentrations of BTU-01 (31.25–1000.0 μg/mL) and/or AmB (0.007–16.0 μg/mL) were added for determining the SMIC (Sessile Minimal Inhibitory Concentration). Untreated and treated biofilms were incubated at 37°C for further 24 h, and then washed with saline. The biofilm viability was analyzed by the MTT reduction assay as described above. The SMICs of BTU-01 and AmB alone and combined were determined by the lowest concentration capable of inhibiting 80% (SCIM80) of the viability of sessile cells compared to the untreated controls. The checkerboard assays were performed to analyze the effect of the combination with BTU-01 and AmB on 72-h biofilms. The results of the combination were interpreted using the FICI as described previously.

A further data set can be described thus: Hemolysis assay. It is filed as cell-based, human. As to conditions: human, human erythrocyte suspension (3%); range over tested concentrations; compound alone; 3 h at 37°C; read-out: percentage of hemolysis. On the procedure:
The cytotoxicity of BTU-01 (1.95–1000.0 μg/mL) alone and combined with AmB (0.015–16.0 μg/mL) was evaluated on human erythrocytes. Blood from a healthy donor was collected according to the Declaration of Helsinki principles, defibrinated and an erythrocytes suspension (3%) was prepared in 5% glycosylated saline. A total of 100 μL of the erythrocytes suspension was incubated for 3 h at 37°C in wells of U-bottom 96-well polystyrene plates containing different concentrations of the compounds. Wells without the compounds and with 1% Triton X-100 were used as negative and positive hemolysis controls, respectively. The OD of the supernatant was determined at 550 nm with a microtiter plate reader (Synergy HT, BioTek, USA). The percentage of hemolysis was calculated by comparison with the positive control ([Izumi et al., 2012]).
The concentration of BTU-01 capable of causing 90% of hemolysis/cytotoxicity was used to calculate the selectivity index (SI) using the following equation: SI = CC90/MIC.

The mark [4] stands for this setting: C. neoformans 1172, treated 24 h.
[5] abbreviates: C. neoformans ATCC 34872, treated 24 h.

Turning to `C[C@@H]1[C@H](O)[C@@H](C)/C=C/C=C/C=C/C=C/C=C/C=C/C=C/[C@H](O[C@@H]2O[C@H](C)[C@@H](O)[C@H](N)[C@@H]2O)C[C@@H]2O[C@](O)(C[C@@H](O)C[C@@H](O)[C@H](O)CC[C@@H](O)C[C@@H](O)CC(=O)O[C@H]1C)C[C@H](O)[C@H]2C(=O)O` [Amphotericin B, amphotericin B], in the data set with Cryptococcus neoformans [1] (AmB MFC, after 24 h-incubation), the CFU counts result is on record as “no CFU counts were detected”. For the same compound, in the data set with Cryptococcus neoformans [2], the capsule size entry is on record as “significant reduction” and the cell size entry is listed as “significant reduction”. For the same compound, the SMIC80 in data set [3] (setting [4]) is 1.0 µg/mL. For the same compound, the SMIC80 in data set [3] (setting [5]) was determined as 1.0 µg/mL. For the same compound, the hemolysis at 3 h in the data set “Hemolysis assay” lay in the range of 0.52 to 1.34%.

As for `CCCCNC(=S)NC(=O)c1ccccc1` [BTU-01, N-(butylcarbamothioyl) benzamide], the “difference in CFU counts compared to untreated control cells” value in the data set on Cryptococcus neoformans [1] (1172) is 3 log10; in the data set on Cryptococcus neoformans [1] (ATCC 34872), 2 log10. Also, the “reduction of CFU compared to untreated control” value in the data set on Cryptococcus neoformans [1] (treatment with MFC, 1172 isolate) was 5 log CFU. The CFU counts result with Cryptococcus neoformans [1] (treatment with MFC, ATCC 34872) is recorded as “zero CFU counts”. For the same compound, the capsule size result in the data set on Cryptococcus neoformans [2] was “significant reduction”. In the data set with Cryptococcus neoformans [2], the cell size entry was “significant reduction”. The SMIC80 was greater than 1000.0 µg/mL in data set [3] (setting [4]) and 125.0 µg/mL in data set [3] (setting [5]). The hemolysis at 3 h in the data set “Hemolysis assay” lay within 0 to 3.18%.
